Marks after values point to notes of the source that are not given here.
Key:
advanced BTC = conditions: phase III, added to chemotherapy, first-line advanced BTC; cited from earlier work
[1] = system: BTC harboring FGFR2 fusions or rearrangements; conditions: phase II trials; cited from earlier work
PK profiles in serum = type: in vivo, human
IDH1-mutant BTC = conditions: phase III; cited from earlier work

| Compound | Overall survival (OS) (advanced BTC) | ORR [1] [%] | further results |
| --- | --- | --- | --- |
| pembrolizumab | improved overall survival | – | – |
| durvalumab | improved overall survival | – | – |
| CCN1CCN(c2ccc(Nc3cc(N(C)C(=O)Nc4c(Cl)c(OC)cc(OC)c4Cl)ncn3)cc2)CC1 [infigratinib] | – | 18.8 | – |
| CC[C@@]1(O)C(=O)OCc2c1cc1n(c2=O)Cc2c-1nc1cc(F)c(C)c3c1c2[C@@H](NC(=O)CO)CC3 [MAAA-1181a] | – | – | t1/2, mean (SD) (PK profiles in serum; n = 6): 4.76 (1.02) days; Tmax, median (range) (PK profiles in serum; n = 7): 3.88 (1.65-4.07) hours; Cmax, mean (SD) (PK profiles in serum; payload after T-DXd 5.4 mg/kg, n = 7): 11.5 (4.65)^a ng/mL |
| N#Cc1ccnc(N2C(=O)CC[C@H]2C(=O)N(c2cncc(F)c2)[C@H](C(=O)NC2CC(F)(F)C2)c2ccccc2Cl)c1 [ivosidenib] | – | – | PFS compared with placebo (IDH1-mutant BTC): improved |
| CCN1C(=O)N(c2c(F)c(OC)cc(OC)c2F)Cc2cnc3[nH]c(CN4CCOCC4)cc3c21 [pemigatinib] | – | 35.5 | – |

— article PMC11404765 (Journal of Clinical Oncology, 2024)
